Results published in US20090099218A1, “SYNTHESIS OF NOVEL TUBULIN POLYMERIZATION INHIBITORS: BENZOYLPHENYLUREA (BPU) SULFUR ANALOGS” (priority 2007, published 2009).

Legend:
[1] = test system: CWR22R; assay: MTT growth inhibition, prostate cancer cell line CWR22R; type: cell-based, human; conditions: for IC50: Homo sapiens, 22Rv1, MTT assay, average of three independent experiments
[2] = test system: LnCaP; assay: MTT growth inhibition, prostate cancer cell line LnCaP; type: cell-based, human; conditions: for IC50: Homo sapiens, LNCaP, MTT assay, average of three independent experiments
Description: This MTT assay was carried using human prostate cancer cell lines CWR22R, LAPC-4 and LnCap using Promega cell titer 96 nonradioactive cell proliferation kits. Cells were trypsinized and centrifuged at 1000 rpm for 5 minutes and the supernatant was aspirated. Cells were resuspended with HBSS to a concentration of 10^6/ml. Cell suspension was diluted in serum containing medium to plate 2000 cells/well/0.2 ml. Cell suspension was transferred to sterile solution basin. Cells were plated using multichannel pipette set at 200 μl and incubated overnight for attachment. One plate was prepared for day 0 MTT assay as follows: 100 μl of media was removed from each well using multichannel pipette and 15 μl of MTT reagent was added. Plates were incubated at 37° C. for 4 hrs. […] of STOP solution was added to each well and incubated at room temperature for 1 hour. Absorbance was measured at 570 and 650 nm on plate reader. All the media from the remaining plates were carefully removed and the cells were treated with the media containing drug. MTT assays were done on days 0, 3, 5 and 7. In the preliminary screening […] BPU sulfur analogs 6l, 6h, 6n, 7d and 8h were screened and their activity was compared with compound 1.
Compounds with significant inhibitory activity in pancreatic cancer cells were further evaluated against prostate cancer cell lines in the MTT assay, (Mosmann, T., J. Immunol. Methods 65:55-63 (1983)) and the results were compared to those for compound 1 (Table 3).

[3] = test system: 11 pancreatic cancer cell line panel; assay: Clonogenic growth, pancreatic cancer cell line panel; type: cell-based; conditions: doses above 0.5 μmol/L
Description: The cell lines ASPC1, MiaPaca2, HS766T, and L36PL were obtained from the American Tissue Culture Collection and are derived from pancreas carcinomas. The cell lines Panc1, Panc203, and Panc1005 are low-passage pancreas cell lines. The cell lines XPA3 and XPA4 are lowpassage. The cell lines E3LZ10 and E3JD13 are lowpassage pancreas cell lines. For clonogenic assessment, 500 cells per well were seeded in six-well plates with enriched RPMI (10% fetal bovine serum+1% penicillin/streptomycin) and exposed to increasing drug concentrations for 96 h. After this, the drug was removed, and the cells were allowed to grow for 14 days before manual colony counting. Each experiment was done in duplicate for each drug concentration and was carried out independently at least thrice. For MAPT protein and mRNA expression analysis, the cell lines were grown in six-well plates with enriched RPMI. When the cells reached a 60% to 70% confluence, they were washed twice with chilled PBS; lysis buffer was added to the plates; and the cells were scraped for protein extraction. An identical experimental set was lysed with RLT (Qiagen) for mRNA extraction.
Clonogenic growth was impaired at concentrations between 0.01 and 0.5 μmol/L (FIG. 35B), with no colony formation at higher doses in 9 of the 11 cell lines. […] Two isoforms of MAPT protein were detected (45 and 65 kDa). […]

| SMILES | IC50 [1] | IC50 [2] | cell lines with no colony formation at higher doses [3] | increase in potency over 6m ([1]; CWR22R) | increase in potency over 6m ([2]; LnCap) |
| --- | --- | --- | --- | --- | --- |
| Nc1ccccc1C(=O)NC(=O)Nc1ccc(Sc2ncc(Br)cn2)cc1 [Compound 7d] | 500 nM | 500 nM | 9 of the 11 | – | – |
| O=C(NC(=O)c1ccccc1[N+](=O)[O-])Nc1ccc(Sc2ncc(Br)cn2)cc1 [Compound 6n, 1-[4-(5-Bromopyrimidin-2-ylsulfanyl)phenyl]-3-(2-nitrobenzoyl)-urea] | 50 nM | 50 nM | 9 of the 11 | 100 fold | 20 fold |
